Where “and” joins values, the source holds several entries; their conditions need not be identical. Identical values can stand only once. Starred links: 1 amine or outer side, 2 acyl side, 3 side chain; linkers in the order of their positions; H or OH if unused. Positions of bridges follow the written chain, without caps; N, C: chain ends. Residues, ends and D or L forms follow the SMILES beside them. No end group written: not given here. X1 = O=C(C[*:2])NCCNC(=O)c1ccc(C2=N[C@H](C(=O)[*:1])CS2)cc1; cADT = 2-aryl-4,5-dihydrothiazole (ADT) linker
B1: cp4 (peptide)
peptide: CPIRYGWDEFC
modifications: linker 1-11 via cADT (inferred)
notes: cp4 is cp2 with E6 substituted by G6; source: synthetic peptide
B2: cp5 (peptide)
peptide: CPIRYPWDEFC
modifications: linker 1-11 via cADT (inferred)
notes: cp5 is cp2 with E6 substituted by P6; source: synthetic peptide

What was measured:
Jurkat cells [1] = assay: Mitochondrial membrane potential (JC-1), flow cytometry and fluorescence microscopy; assay type: cell-based; conditions: for Q1(%) / Q1(%)/Q3(%) / Q3(%): Figure 6d, 4h, replicate values; for ΔΨm (ratio of red over green fluorescence, Q1/Q3) / Relative ΔΨm by JC-1 fluorescence staining (microscopy): Jurkat; for ΔΨm (ratio of red over green fluorescence, Q1/Q3): 4 h treatment, JC-1, flow cytometry, n = 3; for Relative ΔΨm by JC-1 fluorescence staining (microscopy): 24 h treatment (Supplementary Fig. 13)
Protocol: For the mitochondrial membrane potential (ΔΨm) analysis, the mitochondrial membrane potential assay kit with JC-1 dye (Beyotime, C2006) was used according to the manufacturer’s protocol. […] The value of ΔΨm was expressed as the ratio of red fluorescence intensity over green fluorescence intensity. After treated with JC-1, fluorescence intensity of Jurkat cells was tested by flow cytometry (BD FACSAria Fusion) and fluorescence microscopy (NIKON Ti-E), respectively. All experiments were performed in triplicate. Statistical analysis was performed using software GraphPad Prism 7.0.

RS4:11 cells = assay: Cell viability assay (CellTiter-Glo), RS4:11; assay type: cell-based; conditions: RS4:11, single wells
Protocol: (§1) The cell lines Jurkat (TIB-152), El4 (TIB-39), Daudi (ccl-213), RS4:11 (crl-1873), A549 (ccl-185), HepG2 (hb-8065) and PANC-1 (crl-1469) were purchased from ATCC (American Type Culture Collection), and MGC-803 (C6582) was purchased from Beyotime (https://www.beyotime.com/product/C6582.htm). […] Daudi and RS4:11 cells were cultured in RPMI-1640 medium (HyClone, SH30809.01) and 10% FBS (Gibco, 10099-141), whereas HepG2, MGC-803 and PANC-1 cells were cultured in MDEM (HyClone, SH30243.01). Cells were maintained at 37 °C under a humidified, 5% (v/v) CO2-containing atmosphere.
(§2) Cell viability was measured using CellTiter-Glo® 2.0 Reagent (Promega, G9242). […] After different inhibitors were added into serum-free medium and cultured for 4 h (RS4:11 for 6 h), FBS were supplemented to 10% and then incubated totally for 24 h or 48 h. Finally, the IC50 values were calculated based on measurements using a microplate reader (Thermo, Varioskan LUX). Statistical analysis was performed using software GraphPad Prism 7.0.

Jurkat cells [2] = assay: Apoptosis assay, Annexin V-FITC/PI staining and flow cytometry; assay type: cell-based; conditions: for cell apoptosis(%): Figure 6b, replicate values; for Proportion of apoptotic cells: Jurkat, 24 h
Protocol: Jurkat cells were seeded to 6-well plates at a density of 4 ×10^5 cells per well. Cells were incubated in the presence of DMSO, venetoclax at 2.5 μM, cp1-TAT at 30 μM, cp2-TAT at 30 μM, or cp3-TAT at 20 μM in serum-free RPMI medium for 4 h. After being incubated totally for 24 h, cells were washed once with PBS and stained with 100 μL binding buffer containing 5 μL Annexin V-FITC and 10 μL PI for 15 min, followed by addition of 400 μL binding buffer to detect cell apoptosis with FCM (BD FACSAria Fusion). Statistical analysis was performed using software FlowJo V10 and GraphPad Prism 7.0.

Daudi cells = assay: Cell viability assay (CellTiter-Glo), Daudi; assay type: cell-based; conditions: 48 h treatment, CellTiter-Glo
Protocol: as §1, §2

[3] = target: T1, chimeric human BCL-2 (residues 1-50 and 92-207, residues 35-50 replaced with residues 33-48 of BCL-XL) (human, UniProt P10415 1-34; Q07817-1 33-48; P10415 92-207, biotin (biotinylated for SPR; site not stated)); assay: SPR; Biacore T200; biotinylated proteins immobilised on a CAP sensor chip; peptides flowed in multiple cycles (25-12800 nM, depending on the peptides) at 30 uL/min; 10 mM PBS, 50 uM EDTA, 0.05% Tween-20, 25 °C; affinity fitting, 1:1 binding model; conditions: both partners purified
T1 construct: BCL-2, human, residues 1-34 of the chimera (internal loop 51-91 removed; residues 35-50 replaced with residues 33-48 of BCL-XL); BCL-XL, human, residues 33-48, in place of BCL-2 residues 35-50; BCL-2, human, residues 92-207; Biotinylated for SPR; used as such for crystals and fluorescence polarisation; also called BCL-2 WT; source: E. coli BL21 (DE3), purified (Ni-NTA, Superdex 75, RESOURCE Q, …)
T1 chain (looked up): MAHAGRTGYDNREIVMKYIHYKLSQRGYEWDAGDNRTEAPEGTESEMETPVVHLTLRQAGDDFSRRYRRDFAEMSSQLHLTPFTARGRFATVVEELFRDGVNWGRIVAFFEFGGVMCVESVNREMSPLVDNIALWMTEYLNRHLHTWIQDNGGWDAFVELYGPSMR

[4] = target: T2, human BCL-XL (residues 1-210, with 27-81 and 210-233 removed) (human, UniProt Q07817-1 1-209, 27-81 removed, biotin (biotinylated for SPR; site not stated)); assay: as above; conditions: both partners purified
T2 construct: BCL-XL, human; printed as residues 1-210, with 27-81 and 210-233 removed (so the last residue is 209 or 210); source: E. coli BL21 (DE3), purified (Ni-NTA, Superdex 75, RESOURCE Q, Superdex 200)
T2 sequence (Q07817 other isoform, or with tags, fused parts or gaps 27-81 removed | 27-81 removed): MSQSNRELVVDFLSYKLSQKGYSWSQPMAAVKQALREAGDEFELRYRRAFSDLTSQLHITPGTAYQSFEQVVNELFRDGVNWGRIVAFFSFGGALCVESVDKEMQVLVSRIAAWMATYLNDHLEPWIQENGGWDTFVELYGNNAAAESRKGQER

Molecule | Q1(%) (Jurkat cells [1]) | Q1(%)/Q3(%) (Jurkat cells [1]) | Q3(%) (Jurkat cells [1]) | ΔΨm (ratio of red over green fluorescence, Q1/Q3) (Jurkat cells [1]) | Relative ΔΨm by JC-1 fluorescence staining (microscopy) (Jurkat cells [1]) | raw luminescence reading (RS4:11 cells; 0.0488281 uM) | raw luminescence reading (RS4:11 cells; 0.0976562 uM) | raw luminescence reading (RS4:11 cells; 0.195312 uM) | raw luminescence reading (RS4:11 cells; 0.390625 uM) | raw luminescence reading (RS4:11 cells; 0.78125 uM) | raw luminescence reading (RS4:11 cells; 1.5625 uM) | raw luminescence reading (RS4:11 cells; 3.125 uM) | raw luminescence reading (RS4:11 cells; 6.25 uM) | raw luminescence reading (RS4:11 cells; 12.5 uM) | raw luminescence reading (RS4:11 cells; 25 uM) | cell apoptosis(%) (Jurkat cells [2]) | Kd [3] | Kd [4] | other results
CC[C@H](C)[C@@H]1NC(=O)[C@@H]2CCCN2C(=O)[C@@H]2CSC(=N2)c2ccc(cc2)C(=O)NCCNC(=O)CSC[C@@H](C(=O)NCC(=O)N[C@@H](CO)C(=O)NCC(=O)N[C@@H](CO)C(=O)N[C@@H](CCCNC(=N)N)C(=O)N[C@@H](CCCCN)C(=O)N[C@@H](CCCCN)C(=O)N[C@@H](CCCNC(=N)N)C(=O)N[C@@H](CCCNC(=N)N)C(=O)N[C@@H](CCC(N)=O)C(=O)N[C@@H](CCCNC(=N)N)C(=O)N[C@@H](CCCNC(=N)N)C(=O)N[C@@H](CCCNC(=N)N)C(N)=O)NC(=O)[C@H](Cc2ccccc2)NC(=O)[C@H](CCC(=O)O)NC(=O)[C@H](CC(=O)O)NC(=O)[C@H](Cc2c[nH]c3ccccc23)NC(=O)[C@H](CCC(=O)O)NC(=O)[C@H](Cc2ccc(O)cc2)NC(=O)[C@H](CCCNC(=N)N)NC1=O [cp2-TAT] (PIRYEWDEFCGSGSRKKRRQRRR-NH2; linker N-10 via X1; C-terminus assumed) | 90.3% and 89.6% and 90% | 12.1534 and 10.7049 and 11.4358 | 7.43% and 8.37% and 7.87% | 11.43 | slightly decreased | 377400 and 399400 and 472900 and 398600 and 396500 and 376600 | 367900 and 411600 and 442500 and 406100 and 405700 and 384000 | 397400 and 403000 and 448800 and 404500 and 392400 and 382800 | 444700 and 450800 and 451700 and 438000 and 424700 and 412100 | 472600 and 478400 and 471500 and 453400 and 442900 and 434600 | 448100 and 455300 and 501800 and 445000 and 424900 and 404900 | 365800 and 401400 and 456400 and 498100 and 396600 and 403200 | 354100 and 405500 and 450900 and 485900 and 401500 and 412400 | 349800 and 390500 and 462000 and 475300 and 407800 and 417800 | 354900 and 371900 and 417300 and 420500 and 396000 and 400300 | 18.83% and 24.52% | – | – | inhibition rate (RS4:11 cells; 0.0488281 uM, 0.0488281 µM): 9%; inhibition rate (RS4:11 cells; 0.390625 uM, 0.390625 µM): -7.55% and -9% and -6% and -2.71% and 0.339%; inhibition rate (RS4:11 cells; 0.78125 uM, 0.78125 µM): -14%; raw luminescence reading (RS4:11 cells; 50 uM): 273500 and 288400 and 308900 and 317300 and 306600 and 319600; inhibition rate (RS4:11 cells; 50 uM, 50 µM): 34% and 30% and 25% and 23% and 26%; raw luminescence reading (RS4:11 cells; 100 uM): 86770 and 92180 and 107300 and 109400 and 97150 and 101700; inhibition rate (RS4:11 cells; 100 uM, 100 µM): 79% and 78% and 74% and 77% and 75%; Proportion of apoptotic cells (Jurkat cells [2]; 30 μM): 18.83%
CC[C@H](C)[C@@H]1NC(=O)[C@@H]2CCCN2C(=O)[C@@H]2CSC(=N2)c2ccc(cc2)C(=O)NCCNC(=O)CSC[C@@H](C(=O)NCC(=O)N[C@@H](CO)C(=O)NCC(=O)N[C@@H](CO)C(=O)N[C@@H](CCCNC(=N)N)C(=O)N[C@@H](CCCCN)C(=O)N[C@@H](CCCCN)C(=O)N[C@@H](CCCNC(=N)N)C(=O)N[C@@H](CCCNC(=N)N)C(=O)N[C@@H](CCC(N)=O)C(=O)N[C@@H](CCCNC(=N)N)C(=O)N[C@@H](CCCNC(=N)N)C(=O)N[C@@H](CCCNC(=N)N)C(N)=O)NC(=O)[C@H](CCC(=O)O)NC(=O)[C@H](C(C)C)NC(=O)[C@H](CC(=O)O)NC(=O)[C@H](Cc2c[nH]c3ccccc23)NC(=O)[C@@H]2CCCN2C(=O)[C@H](Cc2ccc(O)cc2)NC(=O)[C@H](CCCNC(=N)N)NC1=O [cp3-TAT] (PIRYPWDVECGSGSRKKRRQRRR-NH2; linker N-10 via X1; C-terminus assumed) | 56.7% and 57.7% and 59.6% | 1.435 and 1.514 and 1.628 | 39.5% and 38.1% and 36.6% | 1.53 | red fluorescence almost disappeared | 433900 and 423300 and 457600 and 413600 and 399000 and 376500 | 420200 and 404600 and 437700 and 401400 and 384500 and 361600 | 419000 and 421800 and 444400 and 422500 and 407600 and 396300 | 424000 and 396600 and 443200 and 395300 and 386700 and 379800 | 411200 and 409100 and 439500 and 400400 and 395700 and 387400 | 353400 and 425900 and 446500 and 460500 and 369200 and 455200 | 352000 and 428300 and 434800 and 455400 and 358000 and 465500 | 339600 and 384800 and 395500 and 428900 and 341900 and 416000 | 266500 and 298700 and 305700 and 333300 and 270500 and 326800 | 85450 and 98110 and 94850 and 106300 and 88910 and 106600 | 99.03% and 93.5% | – | – | IC50 (Daudi cells): 7940 nM; inhibition rate (RS4:11 cells; 12.5 uM, 12.5 µM): 37% and 29% and 28% and 21% and 36% and 23%; inhibition rate (RS4:11 cells; 25 uM, 25 µM): 80% and 77% and 78% and 75% and 79%; inhibition rate (RS4:11 cells; 50 uM): 100%; inhibition rate (RS4:11 cells; 100 uM): 100%; Proportion of apoptotic cells (Jurkat cells [2]; 20 μM): 99.03%
B1 | – | – | – | – | – | – | – | – | – | – | – | – | – | – | – | – | 80 nM | 470 nM | –
B2 | – | – | – | – | – | – | – | – | – | – | – | – | – | – | – | – | 80 nM | 40 nM | –

Reference: paper PMC10874388, “Cyclic peptides discriminate BCL-2 and its clinical mutants from BCL-XL by engaging a single-residue discrepancy” (Nature Communications, 2024)
